The text below walks through data of patent publication US10704075B2, “Method for determining the reaction of a microorganism to its exposure to a chemical compound” (bioMérieux, priority 2015, dated 2020).

The test system of experiment [1] is Staphylococcus aureus strain ATCC 25923 called "SA44". Put plainly: Raman spectroscopy analysis of individual bacteria exposed to an antibiotic (method of the invention), strain SA44. Format: cell-based. As for the experimental part:
(§1) The retained conditioning device is constituted of two fluidic chambers and two antibiotic concentrations are tested: c0: “Without antibiotic” and “Resistance test”.
Let c1 be the concentration of oxacillin: c1=8 μg/mL which corresponds to multiplying by a factor of 32 the concentration of 0.25 μg/mL which corresponds to the clinical breakpoint as defined by the EUCAST. The objective of this test is to determine whether the bacterial strain is considered as resistant according to the definitions provided by the EUCAST.
A solution containing the bacteria to be tested is used as a test sample. This solution is obtained by suspending 5.10^7 CFU/mL in order to have a concentration potentially encountered in a clinical sample, for example a urine collection. The bacteria can come from a culture in a liquid medium or a culture in agar medium in Petri dish. This bacteria solution is brought into contact with the interface I of the device functionalized by adsorbing polyethylenimine (PEI) (generic capture). After a capture time of 10 minutes allowing the bacteria to come into contact with the functionalization, the interface I is washed with a water solution, this optional step allowing to eliminate the surplus of uncaptured bacteria still in solution. […]

Experiment [2] has the same test system. Nature of the experiment: Reference methods (bioMérieux ETEST OX 256 or VITEK card P631), strain SA44. Format: cell-based.
The test system of experiment [3] is Escherichia coli strain ATCC 25922 called "EC10". Nature of the experiment: Raman spectroscopy analysis of individual bacteria exposed to an antibiotic (method of the invention), strain EC10. The experiment is classed as cell-based. The following applies: Raman, distance to gentamicin reference signature, tested 0, 0.005, 0.015, 0.064 μg/mL. As for the experimental part: as §1
Let c1 be the concentration of gentamicin: c1=8 μg/mL, which corresponds to the doubling of the concentration 4 μg/mL corresponding to the clinical breakpoint as defined by the EUCAST. The objective of this test is to determine whether the bacterium is considered as resistant according to the definitions provided by the EUCAST.
A solution containing the bacteria to be tested is used as a test sample. This solution is obtained by suspending 5.10^7 CFU/mL in order to have a concentration potentially encountered in a clinical sample, for example a urine collection. This bacteria solution is brought into contact with the interface I of the device functionalized by adsorbing polyethylenimine (PEI) (generic capture). After a capture time of 10 minutes allowing the bacteria to come into contact with the functionalization, the interface I is washed with a water solution, this optional step allowing to eliminate the surplus of uncaptured bacteria still in solution. The physiological medium retained in this example is constituted of a poorly enriched mixture of Bouillon TSB-T Trypcase Soy broth (for example of the reference 42100 of bioMérieux) and of PBS 10× (for example obtained from the PBS tablets of the reference A9162, 0100 of the brand AppliChem) in a 1:9 ratio. After dividing this physiological medium into two fractions, an amount of gentamicin (for example of the reference G1397-10ML of Sigma-Aldrich) is added respectively to each of these fractions, allowing to obtain a different concentration of gentamicin c0 or c1. The solutions of concentrations c0 and c1 produced accordingly are respectively introduced into the chambers C0 or C1. The bacteria captured directly from the sample on the surface I are thus exposed, in a suitable medium, to a different antibiotic concentration depending on the chamber in which they are present.
The device is then heated in order to reach a temperature of 37° C. for two hours and then placed in measurement position on the micro-spectrometer. The marking of the captured bacteria is carried out by an automatic procedure based on image analysis, by a conventional procedure for detecting particles, acquired by means of the micro-spectrometer camera and a suitable light source. This marking allows acquiring automatically a series of Raman spectra (S0 and S1, respectively) acquired on individual bacteria present in each chamber C0 and C1. The number of spectra to be acquired for constituting a dataset depends on the level of requirement on the performances of the tests to be carried out. […]

Experiment [4] concerns Escherichia coli strain ATCC 25922. The following applies: cited from earlier work.

In brackets after ≈: the same amount, converted by molar mass.

Broadly, the MIC is the lowest concentration that inhibits growth of the organism. A high value points to a less susceptible organism. `Cc1onc(-c2ccccc2)c1C(=O)N[C@@H]1C(=O)N2[C@@H]1SC(C)(C)[C@@H]2C(=O)O` [oxacillin]: in experiment [1] (Raman test at 8 μg/mL), the “sensitivity phenotype according to the invention” value is listed as “sensitive”. Besides, in experiment [1] (oxacillin 8 μg/mL, 2 hours at 37° C., N=9, M=337, FIG. 12 (liquid medium cultures)), the “percentage of test samples classified as "ATB effect"” value is listed as “greater than 97%”. Also, in experiment [2] (Staphylococcus aureus, ATCC25923, ETEST OX 256 or VITEK card P631), 0.25 µg/mL (≈ 0.623 µM) was the least that counted as inhibitory (MIC). In addition, the “phenotype according to the EUCAST / reference” value in experiment [2] (from reference MIC) is on record as “not resistant”.

With `O=C(O)c1cn(C2CC2)c2cc(N3CCNCC3)c(F)cc2c1=O` [ciprofloxacin], in experiment [3], the “concentrations at which an antibiotic effect is detected” value is given as “greater than 0.005 μg/mL”. Besides, the “EUCAST known MIC” value in experiment [4] is 0.008 µg/mL.
